In patent publication US11236052B2, “Aminobenzimidazole derivatives, treatments, and methods of inhibiting histone deacetylase” (TRANSLATIONAL DRUG DEVELOPMENT, LLC, priority 2017, dated 2022):
Values belong to the compound of their own block, whether it stands above or below them.

Columns and labels:
[1] = Permeability (PAMPA); assay type: in vitro ADME; conditions: read-out: Permeabiltiy (PAMPA)
[2] = test system: ES2; assay: CellTiter-Glo cell viability assay, ES2; assay type: cell-based; conditions: Ovarian; for IC50: Homo sapiens, ES-2, ES2, 72 hours
Description: (§1) Cell Viability Assay—Cell viability was measured by the CellTiter-Glo® cell viability assay Promega (Madison, Wis.). The CellTiter-Glo® Luminescent Cell Viability Assay is a homogeneous method to determine the number of viable cells in culture based on quantitation of the ATP present, which signals the presence of metabolically active cells. Following treatment, CellTiter-Glo® is added to treatment wells and incubated at 37° C. luminescence values were measured at using a Molecular Devices Spectramax microplate reader.
(§2) Single Agent Studies—Cells were grown to 70% confluency, trypsinized, counted, and seeded in 96 well flat-bottom plates at a final concentration of 2.5×10^3-5×10^3 cells/well (Day 0). Cells were allowed to incubate in growth media for 24 hours. Treatment with the test agents began on Day 1 and continued for 72 hours. At the 72-hour time point, treatment-containing media was removed. Viable cell numbers are quantified by the CellTiter-Glo® cell viability assay as described above. Experiments were run with triplicate concentrations to determine growth inhibitory activity. Results from these studies were used to calculate an IC50 value (concentration of drug that inhibits cell growth by 50 percent of control) for each compound.
(§3) Data Collection—For single agent and combination studies, data from each experiment was collected and expressed as % Cell Growth using the following calculation: % Cell Growth=(ftest/fvehicle)×100
(§4) Where ftest is the luminescence of the tested sample, and fvehicle is the luminescence of the vehicle in which the drug is dissolved. Dose response graphs and IC50 values were generated using Prism 6 software (GraphPad).

[3] = test system: OCI-LY3; assay: CellTiter-Glo cell viability assay, OCI-LY3; assay type: cell-based; conditions: Lymphoma; for IC50: Homo sapiens, OCI-LY3, 72 hours
Description: as §1, §2, §3, §4

[4] = test system: H460; assay: CellTiter-Glo cell viability assay, H460; assay type: cell-based; conditions: NSCLC; for IC50: Homo sapiens, NCI-H460, H460, 72 hours
Description: as §1, §2, §3, §4

[5] = test system: U266; assay: CellTiter-Glo cell viability assay, U266; assay type: cell-based; conditions: Myeloma; for IC50: Homo sapiens, U-266, U266, 72 hours
Description: as §1, §2, §3, §4

[6] = test system: RAMOS; assay: CellTiter-Glo cell viability assay, RAMOS; assay type: cell-based; conditions: Lymphoma; for IC50: Homo sapiens, 72 hours
Description: as §1, §2, §3, §4

[7] = biological target: HDAC10 (Homo sapiens (Human), UniProt Q969S8); assay: In vitro HDAC enzyme inhibition, mobility shift; assay type: biochemical; conditions: purified enzyme
Description: (§5) Purified histone deacetylase enzymes 1, 3, 6, 10 were incubated with fluorescently labeled substrate and test compounds in a standardized reaction mixture in 384 well plates. Upon termination of the reaction, samples were introduced onto microfluidic chips. Samples migrate through channels in the chips and product and substrate are separated based on the difference in their charge and mass (electrophoretic mobility shift). Enzyme activity is measured by direct comparison of the fluorescence in the product and substrate peaks and the results presented in Table 4.

[8] = biological target: HDAC3 (Homo sapiens (Human), UniProt O15379); assay: In vitro HDAC enzyme inhibition, mobility shift; assay type: biochemical; conditions: purified enzyme
Description: as §5

[9] = biological target: HDAC1 (Homo sapiens (Human), UniProt Q13547); assay: In vitro HDAC enzyme inhibition, mobility shift; assay type: biochemical; conditions: purified enzyme
Description: as §5

[10] = biological target: HDAC6 (Homo sapiens (Human), UniProt Q9UBN7); assay: In vitro HDAC enzyme inhibition, mobility shift; assay type: biochemical; conditions: purified enzyme
Description: as §5

[11] = test system: SUDHL-4; assay: CellTiter-Glo cell viability assay, SUDHL-4; assay type: cell-based; conditions: Lymphoma; for IC50: Homo sapiens, SU-DHL-4, SUDHL-4, 72 hours
Description: as §1, §2, §3, §4

[12] = test system: GIST48; assay: CellTiter-Glo cell viability assay, GIST48; assay type: cell-based; conditions: GIST; for IC50: Homo sapiens, GIST48, 72 hours
Description: as §1, §2, §3, §4

[13] = test system: KMS-11; assay: CellTiter-Glo cell viability assay, KMS-11; assay type: cell-based; conditions: Myeloma; for IC50: Homo sapiens, KMS-11, 72 hours
Description: as §1, §2, §3, §4

[14] = test system: MFE280; assay: CellTiter-Glo cell viability assay, MFE280; assay type: cell-based; conditions: Uterine; for IC50: Homo sapiens, MFE-280, MFE280, 72 hours
Description: as §1, §2, §3, §4

[15] = test system: Mino; assay: CellTiter-Glo cell viability assay, Mino; assay type: cell-based; conditions: Lymphoma; for IC50: Homo sapiens, 72 hours
Description: as §1, §2, §3, §4

[16] = test system: RS4-11; assay: CellTiter-Glo cell viability assay, RS4-11; assay type: cell-based; conditions: ALL; for IC50: Homo sapiens, RS4-11, 72 hours
Description: as §1, §2, §3, §4

[17] = % PPB, human; assay type: in vitro ADME; conditions: plasma; human (hu)
[18] = test system: KMS-34; assay: CellTiter-Glo cell viability assay, KMS-34; assay type: cell-based; conditions: Myeloma; for IC50: KMS-34, 72 hours
Description: as §1, §2, §3, §4

[19] = test system: BC-1; assay: CellTiter-Glo cell viability assay, BC-1; assay type: cell-based; conditions: Lymphoma; for IC50: Homo sapiens, BC1, BC-1, 72 hours
Description: as §1, §2, §3, §4

[20] = test system: A549; assay: CellTiter-Glo cell viability assay, A549; assay type: cell-based; conditions: NSCLC; for IC50: Homo sapiens, A549, 72 hours
Description: as §1, §2, §3, §4

Chain of HDAC10 (Q969S8 whole entry): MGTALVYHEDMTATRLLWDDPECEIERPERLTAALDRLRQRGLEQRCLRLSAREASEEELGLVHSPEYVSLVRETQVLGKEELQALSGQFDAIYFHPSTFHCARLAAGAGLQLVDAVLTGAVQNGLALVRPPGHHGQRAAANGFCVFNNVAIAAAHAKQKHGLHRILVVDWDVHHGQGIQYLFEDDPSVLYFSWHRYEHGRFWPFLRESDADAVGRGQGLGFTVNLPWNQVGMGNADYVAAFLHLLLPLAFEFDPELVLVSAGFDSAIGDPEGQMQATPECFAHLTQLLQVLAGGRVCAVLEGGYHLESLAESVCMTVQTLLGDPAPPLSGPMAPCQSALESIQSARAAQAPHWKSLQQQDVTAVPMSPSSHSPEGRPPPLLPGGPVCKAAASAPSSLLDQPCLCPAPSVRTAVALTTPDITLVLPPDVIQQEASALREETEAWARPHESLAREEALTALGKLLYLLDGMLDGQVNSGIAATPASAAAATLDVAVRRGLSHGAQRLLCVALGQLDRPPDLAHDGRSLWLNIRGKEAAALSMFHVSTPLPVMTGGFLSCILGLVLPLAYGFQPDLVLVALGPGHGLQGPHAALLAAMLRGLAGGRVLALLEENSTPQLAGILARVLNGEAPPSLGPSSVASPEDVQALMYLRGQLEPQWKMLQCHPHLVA
Chain of HDAC6 (Q9UBN7 whole entry): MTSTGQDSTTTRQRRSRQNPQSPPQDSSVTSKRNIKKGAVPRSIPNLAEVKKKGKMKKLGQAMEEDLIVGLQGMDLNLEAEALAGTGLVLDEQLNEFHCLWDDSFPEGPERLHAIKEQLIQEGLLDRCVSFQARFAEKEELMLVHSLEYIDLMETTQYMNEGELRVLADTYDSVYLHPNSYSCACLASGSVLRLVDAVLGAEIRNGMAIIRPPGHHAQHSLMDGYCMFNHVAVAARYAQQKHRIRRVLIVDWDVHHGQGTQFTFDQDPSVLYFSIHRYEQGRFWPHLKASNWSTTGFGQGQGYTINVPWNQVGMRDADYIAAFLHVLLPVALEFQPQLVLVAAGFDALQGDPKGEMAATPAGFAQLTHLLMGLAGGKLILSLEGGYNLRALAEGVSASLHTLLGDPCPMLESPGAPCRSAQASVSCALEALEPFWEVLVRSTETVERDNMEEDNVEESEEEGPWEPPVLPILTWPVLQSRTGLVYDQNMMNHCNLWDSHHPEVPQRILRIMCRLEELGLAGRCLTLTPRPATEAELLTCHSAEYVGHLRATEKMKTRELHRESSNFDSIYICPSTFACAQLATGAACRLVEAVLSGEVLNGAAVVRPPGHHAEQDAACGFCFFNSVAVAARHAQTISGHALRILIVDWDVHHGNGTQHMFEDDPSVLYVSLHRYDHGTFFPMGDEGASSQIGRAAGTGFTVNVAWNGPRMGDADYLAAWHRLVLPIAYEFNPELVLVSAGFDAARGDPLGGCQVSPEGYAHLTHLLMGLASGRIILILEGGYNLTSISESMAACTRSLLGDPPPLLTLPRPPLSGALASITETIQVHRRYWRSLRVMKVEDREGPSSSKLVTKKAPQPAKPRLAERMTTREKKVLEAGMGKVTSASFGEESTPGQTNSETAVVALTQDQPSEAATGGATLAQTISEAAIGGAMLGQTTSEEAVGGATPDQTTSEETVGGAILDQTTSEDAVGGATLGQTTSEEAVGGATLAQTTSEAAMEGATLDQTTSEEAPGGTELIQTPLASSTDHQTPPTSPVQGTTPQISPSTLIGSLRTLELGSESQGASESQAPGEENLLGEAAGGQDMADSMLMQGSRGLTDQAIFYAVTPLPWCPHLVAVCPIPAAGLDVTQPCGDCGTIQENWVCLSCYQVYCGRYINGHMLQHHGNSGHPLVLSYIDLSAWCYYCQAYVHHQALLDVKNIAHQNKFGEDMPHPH
Chain of HDAC3 (O15379 whole entry): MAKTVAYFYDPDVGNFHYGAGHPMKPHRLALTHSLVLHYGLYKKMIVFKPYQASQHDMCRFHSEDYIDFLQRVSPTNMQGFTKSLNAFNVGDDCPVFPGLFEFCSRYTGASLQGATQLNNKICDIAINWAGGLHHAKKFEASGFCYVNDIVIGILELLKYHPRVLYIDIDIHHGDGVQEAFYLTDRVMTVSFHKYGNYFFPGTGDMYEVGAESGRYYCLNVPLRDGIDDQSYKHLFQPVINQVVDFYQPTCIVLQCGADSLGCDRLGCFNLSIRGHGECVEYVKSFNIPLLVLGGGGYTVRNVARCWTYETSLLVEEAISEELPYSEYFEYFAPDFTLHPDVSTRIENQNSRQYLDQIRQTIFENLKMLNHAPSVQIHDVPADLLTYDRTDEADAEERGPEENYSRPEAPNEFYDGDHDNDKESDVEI
Chain of HDAC3 (Q9Y618 395-489 partner): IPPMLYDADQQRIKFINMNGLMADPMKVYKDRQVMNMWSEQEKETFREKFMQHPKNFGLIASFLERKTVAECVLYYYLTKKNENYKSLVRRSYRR
Chain of HDAC1 (Q13547 whole entry): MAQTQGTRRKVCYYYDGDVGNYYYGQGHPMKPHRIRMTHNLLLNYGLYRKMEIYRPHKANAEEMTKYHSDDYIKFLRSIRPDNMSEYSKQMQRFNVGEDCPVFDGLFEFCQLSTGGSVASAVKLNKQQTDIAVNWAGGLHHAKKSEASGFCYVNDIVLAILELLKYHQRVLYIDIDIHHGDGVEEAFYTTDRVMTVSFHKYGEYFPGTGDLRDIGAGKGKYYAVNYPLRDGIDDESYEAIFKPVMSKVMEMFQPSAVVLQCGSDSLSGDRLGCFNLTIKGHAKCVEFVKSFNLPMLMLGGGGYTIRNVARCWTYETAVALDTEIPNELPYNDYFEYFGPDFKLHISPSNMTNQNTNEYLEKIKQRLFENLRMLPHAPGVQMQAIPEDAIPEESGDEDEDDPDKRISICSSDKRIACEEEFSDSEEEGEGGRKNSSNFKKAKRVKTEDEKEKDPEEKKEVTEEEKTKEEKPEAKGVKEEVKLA

Papp [1]: 1.68 ×10⁻⁶ cm/s
IC50 [3]: 1050 nM
IC50 [4]: 3470 nM
IC50 [5]: 1170 nM
IC50 [6]: 1380 nM
IC50 [7]: 0.137 µM
IC50 [8]: 0.019 µM
IC50 [9]: 0.13 µM
IC50 [10]: 0.0064 µM
IC50 [11]: 240 nM
IC50 [16]: 1100 nM
fraction unbound [17]: 0.0056
IC50 [20]: 2290 nM
Structure (SMILES): O=C(NO)c1ccc(Nc2nc3ccccc3n2CC2CCCCC2)cc1 [ID #1, 4-((1-(cyclohexylmethyl)-1H-benzo[d]imidazol-2-yl)amino)-N-hydroxybenzamide]
IC50 [2]: 3980 nM
Improvement ID #1 over ID #3 Percent ([2]; ES2): 69.80%
Improvement ID #1 over ID #3 fold ([2]; ES2): 3.31 fold
Improvement ID #1 over ID #3 Percent ([3]; OCI-LY3): 54.15%
Improvement ID #1 over ID #3 fold ([3]; OCI-LY3): 2.18 fold
Improvement ID #1 over ID #3 Percent ([4]; H460): 66.86%
Improvement ID #1 over ID #3 fold ([4]; H460): 3.02 fold
Improvement ID #1 over ID #3 Percent ([5]; U266): 71.46%
Improvement ID #1 over ID #3 fold ([5]; U266): 3.50 fold
Improvement ID #1 over ID #3 Percent [6]: 52.08%
Improvement ID #1 over ID #3 fold [6]: 2.09 fold
Improvement ID #1 over ID #3 Percent ([11]; SUDHL-4): 94.24%
Improvement ID #1 over ID #3 fold ([11]; SUDHL-4): 17.38 fold
Improvement ID #1 over ID #3 Percent ([12]; GIST48): 68.87%
Improvement ID #1 over ID #3 fold ([12]; GIST48): 3.21 fold
IC50 [12]: 1320 nM
IC50 [13]: 1420 nM
Improvement ID #1 over ID #3 Percent ([13]; KMS-11): 52.98%
Improvement ID #1 over ID #3 fold ([13]; KMS-11): 2.13 fold
IC50 [14]: 5010 nM
Improvement ID #1 over ID #3 Percent ([14]; MFE280): 48.40%
Improvement ID #1 over ID #3 fold ([14]; MFE280): 1.94 fold
IC50 [15]: 1200 nM
Improvement ID #1 over ID #3 Percent [15]: 71.22%
Improvement ID #1 over ID #3 fold [15]: 3.48 fold
Improvement ID #1 over ID #3 Percent ([16]; RS4-11): 54.92%
Improvement ID #1 over ID #3 fold ([16]; RS4-11): 2.22 fold
Improvement ID #1 over ID #3 Percent ([18]; KMS-34): 55.15%
Improvement ID #1 over ID #3 fold ([18]; KMS-34): 2.23 fold
IC50 [18]: 610 nM
IC50 [19]: 1790 nM
Improvement ID #1 over ID #3 Percent ([19]; BC-1): 63.69%
Improvement ID #1 over ID #3 fold ([19]; BC-1): 2.75 fold
Improvement ID #1 over ID #3 Percent ([20]; A549): 77.10%
Improvement ID #1 over ID #3 fold ([20]; A549): 4.37 fold

Papp [1]: 2.2 ×10⁻⁶ cm/s
IC50 [3]: 2290 nM
IC50 [4]: 10500 nM
IC50 [5]: 4100 nM
IC50 [6]: 2880 nM
IC50 [7]: 3.12 µM
IC50 [8]: 0.079 µM
IC50 [9]: 0.445 µM
IC50 [10]: 0.0145 µM
IC50 [11]: 4170 nM
IC50 [16]: 2440 nM
fraction unbound [17]: 0.0064
IC50 [20]: 10000 nM
Structure (SMILES): O=C(NO)c1ccc(Nc2nc3ccccc3n2C2CCCCCC2)cc1 [ID #3, 4-((1-cycloheptyl-1H-benzo[d]imidazol-2-yl)amino)-N-hydroxybenzamide]
IC50 [2]: 13200 nM
IC50 [12]: 4240 nM
IC50 [13]: 3020 nM
IC50 [14]: 9710 nM
IC50 [15]: 4170 nM
IC50 [18]: 1360 nM
IC50 [19]: 4930 nM
